Source: ChEMBL document CHEMBL4330059, “Discovery of N1-(4-((7-(3-(4-ethylpiperazin-1-yl)propoxy)-6-methoxyquinolin-4-yl)oxy)-3,5-difluorophenyl)-N3-(2-(2,6-difluorophenyl)-4-oxothiazolidin-3-yl)urea as a multi-tyrosine kinase inhibitor for drug-sensitive and drug-resistant cancers treatment” (Eur J Med Chem, 2019)
Activity calls are given as the source filed them. The calls are words filed in the database; no cut-off is given here.

Tests used:
MCF7 = assay: Antiproliferative activity against human MCF7 cells after 72 hrs by MTT assay; assay type: functional, cell-based; conditions: MCF7, 72 h
A549 = assay: Antiproliferative activity against human A549 cells after 72 hrs by MTT assay; assay type: functional, cell-based; conditions: A549, 72 h
[1] = Antiproliferative activity against human MCF7/DX cells after 72 hrs by MTT assay; assay type: functional, cell-based
MDA-MB-231 = assay: Antiproliferative activity against human MDA-MB-231 cells after 72 hrs by MTT assay; assay type: functional, cell-based; conditions: MDA-MB-231, 72 h
FHC = assay: Cytotoxicity against human FHC cells after 72 hrs by MTT assay; assay type: cell-based
[2] = Selectivity index, ratio of IC50 for human FHC cells to IC50 for human HT-29 cells; assay type: toxicity; conditions: FHC cells and HT-29 cells, read-out: Ratio IC50
HT-29 [3] = assay: Antiproliferative activity against human HT-29 cells after 72 hrs by MTT assay; assay type: functional, cell-based; conditions: HT-29, 72 h
A549/CDDP = assay: Antiproliferative activity against human A549/CDDP cells after 72 hrs by MTT assay; assay type: functional, cell-based
HT-29 [4] = assay: Induction of apoptosis in human HT-29 cells assessed as early apoptotic cells at 5 ug/mL after 72 hrs by Annexin V-FITC/propidium iodide staining-based flow cytometric analysis (reference value: 0%); assay type: functional
HT-29 [5] = assay: Antiproliferative activity against human HT-29 cells at 3.33 ug/ml after 36 to 72 hrs by phase contrast microscopy; assay type: functional, cell-based
HT-29 [6] = assay: Induction of apoptosis in human HT-29 cells assessed as late apoptotic cells at 5 ug/mL after 72 hrs by Annexin V-FITC/propidium iodide staining-based flow cytometric analysis (reference value: 0.1%); assay type: functional
HT-29 [7] = assay: Cytotoxicity against human HT-29 cells assessed as increase in dead cells at 10 ug/mL up to 36 hrs by yoyo-1 dye-based fluorescence assay; assay type: functional, cell-based
HT-29 [8] = assay: Antimigratory activity against human HT-29 cells at 3.33 ug/mL after 48 to 72 hrs by wound healing assay; assay type: functional, cell-based
HT-29 [9] = assay: Antiproliferative activity against human HT-29 cells at 10 ug/ml after 72 hrs by IncuCyte live-cell imaging assay; assay type: functional, cell-based
HT-29 [10] = assay: Induction of apoptosis in human HT-29 cells assessed as early apoptotic cells at 1 ug/mL after 72 hrs by Annexin V-FITC/propidium iodide staining-based flow cytometric analysis (reference value: 0%); assay type: functional
[11] = biological target: Macrophage-stimulating protein receptor (Homo sapiens, UniProt Q04912); assay: Inhibition of Ron (unknown origin) using FAM-labelled peptide and ATP incubated for 10 mins by mobility shift assay
HT-29 [12] = assay: Antiproliferative activity against human HT-29 cells assessed as cell confluence level at 10 ug/ml after 72 hrs by IncuCyte live-cell imaging assay (reference value: 87.5%); assay type: functional
HT-29 [13] = assay: Antiproliferative activity against human HT-29 cells after 72 hrs by IncuCyte live-cell imaging assay; assay type: functional, cell-based
[14] = biological target: Vascular endothelial growth factor receptor 2 (Homo sapiens, UniProt P35968); assay: Inhibition of KDR (unknown origin) using FAM-labelled peptide and ATP incubated for 10 mins by mobility shift assay
[15] = biological target: Receptor tyrosine-protein kinase erbB-2 (Homo sapiens, UniProt P04626); assay: Inhibition of HER-2 (unknown origin) using FAM-labelled peptide and ATP incubated for 10 mins by mobility shift assay
[16] = biological target: T1, Hepatocyte growth factor receptor (Homo sapiens, UniProt P08581); assay: Inhibition of c-Met in human HT-29 cells assessed as decrease in Akt phosphorylation at 3 ug/mL after 72 hrs by Western blot analysis; assay type: cell-based
HT-29 [17] = assay: Cytotoxicity against human HT-29 cells assessed as increase in dead cells at 3.33 ug/mL up to 72 hrs by yoyo-1 dye-based fluorescence assay; assay type: functional, cell-based
HT-29 [18] = assay: Induction of apoptosis in human HT-29 cells assessed as late apoptotic cells at 1 ug/mL after 72 hrs by Annexin V-FITC/propidium iodide staining-based flow cytometric analysis (reference value: 0.1%); assay type: functional
[19] = biological target: T1, Hepatocyte growth factor receptor; assay: Inhibition of c-Met (unknown origin) using FAM-labelled peptide and ATP incubated for 10 mins by mobility shift assay
HT-29 [20] = assay: Cytotoxicity against human HT-29 cells assessed as increase in dead cells at 0.01 ug/mL after 72 hrs by yoyo-1 dye-based fluorescence assay; assay type: functional, cell-based
HT-29 [21] = assay: Antimigratory activity against human HT-29 cells at <3.33 ug/mL after 48 to 72 hrs by wound healing assay; assay type: functional, cell-based
HT-29 [22] = assay: Induction of apoptosis in human HT-29 cells after 72 hrs by Annexin V-FITC/propidium iodide staining-based flow cytometric analysis; assay type: functional, cell-based
HT-29 [23] = assay: Induction of apoptosis in human HT-29 cells assessed as late apoptotic cells at 0.3 ug/mL after 72 hrs by Annexin V-FITC/propidium iodide staining-based flow cytometric analysis (reference value: 0.1%); assay type: functional
HT-29 [24] = assay: Induction of apoptosis in human HT-29 cells assessed as early apoptotic cells at 0.1 ug/mL after 72 hrs by Annexin V-FITC/propidium iodide staining-based flow cytometric analysis (reference value: 0%); assay type: functional
[25] = biological target: ALK tyrosine kinase receptor (Homo sapiens, UniProt Q9UM73); assay: Inhibition of ALK (unknown origin) using FAM-labelled peptide and ATP incubated for 10 mins by mobility shift assay
[26] = biological target: Insulin-like growth factor 1 receptor (Homo sapiens, UniProt P08069); assay: Inhibition of IGF-1R (unknown origin) using FAM-labelled peptide and ATP incubated for 10 mins by mobility shift assay
[27] = biological target: Epidermal growth factor receptor (Homo sapiens, UniProt P00533); assay: Inhibition of EGFR (unknown origin) using FAM-labelled peptide and ATP incubated for 10 mins by mobility shift assay
[28] = biological target: T1, Hepatocyte growth factor receptor; assay: Inhibition of c-Met in human HT-29 cells assessed as decrease in ERK1/2 phosphorylation at 3 ug/mL after 72 hrs by Western blot analysis; assay type: cell-based
HT-29 [29] = assay: Cytotoxicity against human HT-29 cells assessed as increase in dead cells after 72 hrs by yoyo-1 dye-based fluorescence assay; assay type: functional, cell-based
HT-29 [30] = assay: Induction of apoptosis in human HT-29 cells assessed as early apoptotic cells at 0.3 ug/mL after 72 hrs by Annexin V-FITC/propidium iodide staining-based flow cytometric analysis (reference value: 0%); assay type: functional
HT-29 [31] = assay: Induction of apoptosis in human HT-29 cells assessed as early apoptotic cells at 3 ug/mL after 72 hrs by Annexin V-FITC/propidium iodide staining-based flow cytometric analysis (reference value: 0%); assay type: functional
HT-29 [32] = assay: Antiproliferative activity against human HT-29 cells assessed as cell confluence level at 0.37 ug/ml after 0 to 12 hrs by IncuCyte live-cell imaging assay (reference value: 87.5%); assay type: functional
[33] = biological target: Proto-oncogene tyrosine-protein kinase Src (Homo sapiens, UniProt P12931); assay: Inhibition of c-Src (unknown origin) using FAM-labelled peptide and ATP incubated for 10 mins by mobility shift assay
[34] = biological target: T1, Hepatocyte growth factor receptor; assay: Inhibition of c-Met phosphorylation in human HT-29 cells at 3 ug/mL after 72 hrs by Western blot analysis; assay type: cell-based
HT-29 [35] = assay: Induction of apoptosis in human HT-29 cells assessed as late apoptotic cells at 3 ug/mL after 72 hrs by Annexin V-FITC/propidium iodide staining-based flow cytometric analysis (reference value: 0.1%); assay type: functional
HT-29 [36] = assay: Induction of apoptosis in human HT-29 cells assessed as late apoptotic cells at 0.1 ug/mL after 72 hrs by Annexin V-FITC/propidium iodide staining-based flow cytometric analysis (reference value: 0.1%); assay type: functional
[37] = biological target: T2, Tyrosine-protein kinase receptor UFO (Homo sapiens, UniProt P30530); assay: Inhibition of AXL (unknown origin) using FAM-labelled peptide and ATP incubated for 10 mins by mobility shift assay
T2 sequence (P30530 whole entry): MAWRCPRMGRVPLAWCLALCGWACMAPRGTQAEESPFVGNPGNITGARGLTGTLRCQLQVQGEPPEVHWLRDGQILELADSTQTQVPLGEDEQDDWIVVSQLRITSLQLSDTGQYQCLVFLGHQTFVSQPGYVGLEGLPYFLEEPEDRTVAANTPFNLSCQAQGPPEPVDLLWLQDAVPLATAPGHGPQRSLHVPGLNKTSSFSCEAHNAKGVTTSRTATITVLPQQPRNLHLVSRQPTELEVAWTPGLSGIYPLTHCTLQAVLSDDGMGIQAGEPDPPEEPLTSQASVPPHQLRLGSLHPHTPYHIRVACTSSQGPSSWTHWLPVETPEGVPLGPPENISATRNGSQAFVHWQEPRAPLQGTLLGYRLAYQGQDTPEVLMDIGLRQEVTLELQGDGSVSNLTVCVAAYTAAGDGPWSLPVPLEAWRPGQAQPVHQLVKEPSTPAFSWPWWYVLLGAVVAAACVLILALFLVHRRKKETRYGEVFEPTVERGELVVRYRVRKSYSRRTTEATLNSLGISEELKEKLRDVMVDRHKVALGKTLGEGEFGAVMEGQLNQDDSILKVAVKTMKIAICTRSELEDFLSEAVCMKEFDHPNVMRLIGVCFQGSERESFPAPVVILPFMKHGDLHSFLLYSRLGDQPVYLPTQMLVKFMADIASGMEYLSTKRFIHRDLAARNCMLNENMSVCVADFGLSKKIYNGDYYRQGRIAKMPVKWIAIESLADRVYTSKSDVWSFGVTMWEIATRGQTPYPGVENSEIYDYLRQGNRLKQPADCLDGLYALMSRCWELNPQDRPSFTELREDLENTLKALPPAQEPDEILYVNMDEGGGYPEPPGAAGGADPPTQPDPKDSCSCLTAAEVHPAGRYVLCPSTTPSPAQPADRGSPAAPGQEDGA

[38] = biological target: Mast/stem cell growth factor receptor Kit (Homo sapiens, UniProt P10721); assay: Inhibition of c-Kit (unknown origin) using FAM-labelled peptide and ATP incubated for 10 mins by mobility shift assay

T1 sequence (P08581 whole entry): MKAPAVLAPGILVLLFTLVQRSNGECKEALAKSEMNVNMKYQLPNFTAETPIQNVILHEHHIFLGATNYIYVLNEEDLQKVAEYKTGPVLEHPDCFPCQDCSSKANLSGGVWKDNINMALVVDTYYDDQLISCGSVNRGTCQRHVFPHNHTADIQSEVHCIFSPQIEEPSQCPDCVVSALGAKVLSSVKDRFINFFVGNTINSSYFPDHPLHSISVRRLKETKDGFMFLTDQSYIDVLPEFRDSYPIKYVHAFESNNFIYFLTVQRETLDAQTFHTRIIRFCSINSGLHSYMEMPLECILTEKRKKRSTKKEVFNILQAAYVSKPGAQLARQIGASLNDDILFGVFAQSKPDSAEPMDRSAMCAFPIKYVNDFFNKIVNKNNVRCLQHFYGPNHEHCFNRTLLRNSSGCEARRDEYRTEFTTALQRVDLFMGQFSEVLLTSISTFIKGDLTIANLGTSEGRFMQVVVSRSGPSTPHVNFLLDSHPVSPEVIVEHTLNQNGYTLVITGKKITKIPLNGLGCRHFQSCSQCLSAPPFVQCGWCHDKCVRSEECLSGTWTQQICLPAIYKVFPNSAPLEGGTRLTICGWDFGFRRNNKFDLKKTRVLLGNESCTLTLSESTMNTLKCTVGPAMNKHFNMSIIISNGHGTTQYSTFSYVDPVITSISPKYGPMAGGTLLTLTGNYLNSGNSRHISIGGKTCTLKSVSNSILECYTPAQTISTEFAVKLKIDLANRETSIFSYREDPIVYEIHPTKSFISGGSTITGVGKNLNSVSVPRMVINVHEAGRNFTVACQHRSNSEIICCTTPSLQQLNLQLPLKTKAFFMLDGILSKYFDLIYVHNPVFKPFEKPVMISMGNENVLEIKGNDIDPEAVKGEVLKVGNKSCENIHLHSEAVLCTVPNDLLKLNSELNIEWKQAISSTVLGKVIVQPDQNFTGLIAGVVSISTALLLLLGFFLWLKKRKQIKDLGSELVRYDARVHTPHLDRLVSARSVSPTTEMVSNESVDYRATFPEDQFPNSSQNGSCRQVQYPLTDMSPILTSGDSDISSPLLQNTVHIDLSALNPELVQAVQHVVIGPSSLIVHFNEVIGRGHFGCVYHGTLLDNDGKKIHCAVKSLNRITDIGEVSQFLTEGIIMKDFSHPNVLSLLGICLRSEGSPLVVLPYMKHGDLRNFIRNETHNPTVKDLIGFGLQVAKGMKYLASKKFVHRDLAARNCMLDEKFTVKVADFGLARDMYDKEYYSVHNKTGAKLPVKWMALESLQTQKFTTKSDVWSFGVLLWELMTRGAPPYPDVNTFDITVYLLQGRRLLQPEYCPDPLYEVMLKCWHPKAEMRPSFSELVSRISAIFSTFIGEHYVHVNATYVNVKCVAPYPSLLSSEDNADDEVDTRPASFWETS
ALK tyrosine kinase receptor, sequence (Q9UM73 whole entry): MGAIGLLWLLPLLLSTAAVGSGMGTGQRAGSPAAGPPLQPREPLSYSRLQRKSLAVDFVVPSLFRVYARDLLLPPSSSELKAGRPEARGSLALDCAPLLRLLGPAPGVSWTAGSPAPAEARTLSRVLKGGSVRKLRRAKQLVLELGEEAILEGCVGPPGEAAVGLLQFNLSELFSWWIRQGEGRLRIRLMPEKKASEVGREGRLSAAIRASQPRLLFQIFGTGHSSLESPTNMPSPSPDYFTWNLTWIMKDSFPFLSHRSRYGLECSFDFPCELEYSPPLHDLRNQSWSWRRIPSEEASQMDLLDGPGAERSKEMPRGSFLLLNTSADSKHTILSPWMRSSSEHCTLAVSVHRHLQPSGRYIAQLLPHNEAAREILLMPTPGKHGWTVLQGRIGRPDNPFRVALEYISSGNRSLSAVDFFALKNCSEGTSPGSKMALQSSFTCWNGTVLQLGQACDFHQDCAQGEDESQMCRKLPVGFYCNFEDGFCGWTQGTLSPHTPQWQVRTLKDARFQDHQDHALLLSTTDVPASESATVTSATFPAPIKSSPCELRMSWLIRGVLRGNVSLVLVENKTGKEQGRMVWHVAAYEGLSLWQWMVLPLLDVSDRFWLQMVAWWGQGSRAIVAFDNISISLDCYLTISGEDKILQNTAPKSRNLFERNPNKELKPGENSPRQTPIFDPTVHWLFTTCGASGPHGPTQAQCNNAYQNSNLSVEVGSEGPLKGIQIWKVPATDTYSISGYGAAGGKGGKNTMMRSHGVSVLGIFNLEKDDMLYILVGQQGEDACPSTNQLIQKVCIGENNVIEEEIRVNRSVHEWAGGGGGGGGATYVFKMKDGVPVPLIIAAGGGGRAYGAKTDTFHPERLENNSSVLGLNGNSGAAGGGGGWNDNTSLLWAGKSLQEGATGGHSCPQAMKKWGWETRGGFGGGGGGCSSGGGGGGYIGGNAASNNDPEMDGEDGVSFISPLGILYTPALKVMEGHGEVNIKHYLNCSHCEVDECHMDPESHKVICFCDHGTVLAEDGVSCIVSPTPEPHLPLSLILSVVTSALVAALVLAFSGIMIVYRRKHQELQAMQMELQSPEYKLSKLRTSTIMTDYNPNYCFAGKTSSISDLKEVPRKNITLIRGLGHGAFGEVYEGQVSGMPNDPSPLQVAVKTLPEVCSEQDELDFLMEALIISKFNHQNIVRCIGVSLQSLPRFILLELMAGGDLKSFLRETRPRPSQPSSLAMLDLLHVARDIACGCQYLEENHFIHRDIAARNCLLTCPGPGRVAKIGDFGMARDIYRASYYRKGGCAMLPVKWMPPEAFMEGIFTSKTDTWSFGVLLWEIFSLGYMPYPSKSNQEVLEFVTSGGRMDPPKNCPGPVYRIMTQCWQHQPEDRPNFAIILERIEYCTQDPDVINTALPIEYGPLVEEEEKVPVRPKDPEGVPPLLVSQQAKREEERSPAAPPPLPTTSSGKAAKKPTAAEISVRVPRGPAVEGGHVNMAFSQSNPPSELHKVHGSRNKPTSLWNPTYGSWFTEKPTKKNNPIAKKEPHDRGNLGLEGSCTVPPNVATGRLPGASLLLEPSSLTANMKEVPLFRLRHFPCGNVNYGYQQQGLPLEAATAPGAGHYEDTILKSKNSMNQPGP
Macrophage-stimulating protein receptor, sequence (Q04912 25-304 limits assumed): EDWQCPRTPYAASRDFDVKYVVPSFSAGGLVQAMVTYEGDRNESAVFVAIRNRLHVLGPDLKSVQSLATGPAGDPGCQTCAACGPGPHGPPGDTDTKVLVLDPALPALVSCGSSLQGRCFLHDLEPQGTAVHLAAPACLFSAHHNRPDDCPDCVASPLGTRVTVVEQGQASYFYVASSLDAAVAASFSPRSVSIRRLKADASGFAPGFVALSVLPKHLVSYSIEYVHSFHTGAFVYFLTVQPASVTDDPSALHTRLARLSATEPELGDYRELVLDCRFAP
Macrophage-stimulating protein receptor, sequence (Q04912 310-1400 limits assumed): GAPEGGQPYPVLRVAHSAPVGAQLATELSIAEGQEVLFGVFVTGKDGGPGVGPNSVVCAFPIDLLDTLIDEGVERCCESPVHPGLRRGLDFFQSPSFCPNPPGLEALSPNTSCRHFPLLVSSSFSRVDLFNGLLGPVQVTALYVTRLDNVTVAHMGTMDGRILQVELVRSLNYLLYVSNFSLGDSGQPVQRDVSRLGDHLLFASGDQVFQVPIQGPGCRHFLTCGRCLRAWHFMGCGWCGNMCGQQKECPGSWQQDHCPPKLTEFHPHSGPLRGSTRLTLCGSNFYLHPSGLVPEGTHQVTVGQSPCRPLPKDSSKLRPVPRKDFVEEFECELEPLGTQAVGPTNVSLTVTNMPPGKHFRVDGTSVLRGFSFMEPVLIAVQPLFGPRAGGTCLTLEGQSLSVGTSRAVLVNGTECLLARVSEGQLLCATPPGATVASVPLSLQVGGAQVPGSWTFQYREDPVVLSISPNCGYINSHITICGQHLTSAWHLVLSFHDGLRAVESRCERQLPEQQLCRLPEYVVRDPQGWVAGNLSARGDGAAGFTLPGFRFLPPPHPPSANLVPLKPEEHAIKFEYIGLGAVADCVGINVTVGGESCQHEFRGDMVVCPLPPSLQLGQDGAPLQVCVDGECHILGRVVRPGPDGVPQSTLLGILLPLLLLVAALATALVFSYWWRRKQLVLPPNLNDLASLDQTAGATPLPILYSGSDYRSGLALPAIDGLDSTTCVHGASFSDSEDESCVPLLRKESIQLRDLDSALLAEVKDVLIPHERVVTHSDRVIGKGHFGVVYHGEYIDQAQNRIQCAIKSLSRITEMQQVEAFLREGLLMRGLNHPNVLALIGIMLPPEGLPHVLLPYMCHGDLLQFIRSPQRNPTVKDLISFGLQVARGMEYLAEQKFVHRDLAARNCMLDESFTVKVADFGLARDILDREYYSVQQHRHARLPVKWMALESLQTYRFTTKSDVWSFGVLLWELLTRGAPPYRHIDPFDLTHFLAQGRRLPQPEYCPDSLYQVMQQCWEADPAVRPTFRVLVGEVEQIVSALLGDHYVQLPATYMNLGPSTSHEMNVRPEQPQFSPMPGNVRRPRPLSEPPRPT
Proto-oncogene tyrosine-protein kinase Src, sequence (P12931 2-536 limits assumed): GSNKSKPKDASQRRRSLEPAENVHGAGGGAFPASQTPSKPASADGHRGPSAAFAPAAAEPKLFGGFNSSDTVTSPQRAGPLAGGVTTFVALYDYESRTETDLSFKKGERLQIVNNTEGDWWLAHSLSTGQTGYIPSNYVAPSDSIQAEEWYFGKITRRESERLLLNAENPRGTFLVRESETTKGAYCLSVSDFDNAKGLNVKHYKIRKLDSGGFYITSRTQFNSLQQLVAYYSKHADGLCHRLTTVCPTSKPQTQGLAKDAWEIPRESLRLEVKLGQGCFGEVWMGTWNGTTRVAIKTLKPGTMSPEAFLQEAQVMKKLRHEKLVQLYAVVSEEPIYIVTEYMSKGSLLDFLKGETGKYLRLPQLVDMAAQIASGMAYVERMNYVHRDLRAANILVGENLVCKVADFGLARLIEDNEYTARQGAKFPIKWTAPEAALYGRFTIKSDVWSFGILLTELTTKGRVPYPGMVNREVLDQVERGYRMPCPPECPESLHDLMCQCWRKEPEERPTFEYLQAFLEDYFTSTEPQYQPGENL

In the case of `CCN(CC)CCCOc1cc2nccc(Oc3c(F)cc(NC(=O)NN4C(=O)CSC4c4c(F)cccc4F)cc3F)c2cc1OC` (centres undefined), the IC50 (MCF7) is reported as 1600 nM, the IC50 (A549) is reported as 450 nM and the IC50 [1] is reported as 3400 nM. It also gave an IC50 (MDA-MB-231) of 3790 nM, an IC50 (FHC) of 540 nM and a selectivity ratio [2] of 5.9. For the same compound, the IC50 (HT-29 [3]) was 91 nM and the IC50 (A549/CDDP) was 540 nM.

Work on `COc1cc2nccc(Oc3ccc(NC(=O)C4(C(=O)Nc5ccc(F)cc5)CC4)cc3)c2cc1OC` [CABOZANTINIB] yielded an IC50 (MCF7) of 8570 nM, an IC50 (A549) of 9520 nM and an Activity (HT-29 [4]) of 78.4%. The IC50 [1] was over 50000 nM, the Activity (HT-29 [5]) was “Active” and the IC50 (MDA-MB-231) was 13400 nM. For the same compound, the IC50 (FHC) was 4400 nM, the Activity (HT-29 [6]) was 10.9% and the IC50 (HT-29 [3]) was 11500 nM. For the same compound, the Activity (HT-29 [7]) was “Active”, the IC50 (A549/CDDP) was 19600 nM and the Activity (HT-29 [8]) was “Active”. For the same compound, the Activity (HT-29 [9]) was “Active”.

With `CCN1CCN(CCCOc2cc3nccc(Oc4c(F)cc(NC(=O)NN5C(=O)CSC5c5c(F)cccc5F)cc4F)c3cc2OC)CC1` (centres undefined) the Activity (HT-29 [10]) was 70.2%, the IC50 (MCF7) was 1500 nM and the IC50 [11] was 2.9 nM. The Activity (HT-29 [12]) was 24.3%, the Activity (HT-29 [13]) was “Dose-dependent effect” and the IC50 (A549) was 350 nM. The IC50 [14] was 850 nM, the IC50 [15] was over 10000 nM and the inhibition [16] was “Active”. The Activity (HT-29 [17]) was “Active”, the IC50 [1] was 3800 nM and the Activity (HT-29 [18]) was 11%. For the same compound, the IC50 (MDA-MB-231) was 3100 nM, the IC50 [19] was 15 nM and the Activity (HT-29 [20]) was “Active”. For the same compound, the Activity (HT-29 [21]) was “inactive”, the Activity (HT-29 [22]) was “Dose-dependent effect” and the IC50 (FHC) was 1180 nM. The selectivity ratio [2] was 16.2, the Activity (HT-29 [23]) was 9.6% and the Activity (HT-29 [24]) was 17.4%. It also gave an IC50 [25] of over 10000 nM, an IC50 [26] of 2100 nM and an IC50 [27] of 520 nM. For the same compound, the inhibition [28] was “Active”, the IC50 (HT-29 [3]) was 73 nM and the Activity (HT-29 [29]) was “Dose-dependent effect”. It also gave an Activity (HT-29 [30]) of 55.1%, an Activity (HT-29 [31]) of 74.5% and an Activity (HT-29 [32]) of 63.6%. The IC50 (A549/CDDP) was 630 nM, the IC50 [33] was 240 nM and the Activity (HT-29 [8]) was “Active”. The inhibition [34] was “Active”, the Activity (HT-29 [35]) was 10.3% and the Activity (HT-29 [36]) was 9.9%. For the same compound, the IC50 [37] was 53 nM and the IC50 [38] was 64 nM.
